# Target: T1, Ba/F3 cell EGFR Exon20 ins NPH (Homo sapiens, UniProt P00533, INS773NPH)
# T1 construct: expressed in transfected cells; host or cells: Ba/F3
# Experiment: Ba/F3 cell proliferation suppression, EGFR Exon20 ins NPH
# Type: cell-based
# Conditions: GI50 class; Ba/F3 cell line with NPH inserted at Exon20 of EGFR; 72 hours
# Outline: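 Cells (3000–5000/well) plated 24 h before compound, 12-point 3-fold dilutions at 0.3 nM to 50 um final; Ba/F3 lines grown with 5 ng/ml IL-3. Viability by CellTiter-Glo luminescence after 72 h, growth ratio vs control, GI50 from curves; triplicate.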
row,Compound,Ba/F3 (NPH) Activity
1,"C=CC(=O)Nc1cc(Nc2cc(N3OCC[C@@H]3c3ccc(Cl)c(F)c3)ncn2)c(OC)cc1N1CCC(N2CCN(C3CC3)CC2)CC1 [Example 63, N-(5-((6-((R)-3-(4-chloro-3-fluorophenyl)isoxazolidine-2-yl)pyrimidine-4-yl)amino)-2-(4-(4-cyclopropylpiperazine-1-yl)piperidine-1-yl)-4-methoxyphenyl) acrylamide]",A (GI50 < 50 nM)
2,"C=CC(=O)Nc1cc(Nc2cc(N3OCC[C@@H]3c3cc(F)cc(Cl)c3)ncn2)c(OC)cc1N1CCC(N2CCN(C(C)C)CC2)CC1 [compound 593, N-(5-((6-((R)-3-(3-chloro-5-fluorophenyl)isoxazolidine-2-yl)pyrimidine-4-yl)amino)-2-(4-(4-isopropylpiperazine-1-yl)piperidine-1-yl)-4-methoxyphenyl) acrylamide]",A (GI50 < 50 nM)
3,"C=CC(=O)Nc1cc(Nc2cc(N3OCC[C@@H]3c3ccc(Cl)c(Cl)c3F)ncn2)c(OC)cc1N1CCC(N2CCN(C3CCC3)CC2)CC1 [Example 74, N-(2-(4-(4-cyclobutylpiperazine-1-yl)piperidine-1-yl)-5-((6-((R)-3-(3,4-dichloro-2-fluorophenyl)isoxazolidine-2-yl)pyrimidine-4-yl)amino)-4-methoxyphenyl) acrylamide]",B (50 nM ≤ GI50 < 500 nM)
4,"C=CC(=O)Nc1cc(Nc2cc(N3OCC[C@@H]3Cc3cccc(F)c3)ncn2)c(OC)cc1N1CCC(N2C[C@H]3CC[C@@H](C2)N3C2CC2)CC1 [compound 995, N-(2-(4-((1R,5S)-8-cyclopropyl-3,8-diazabicyclo [3.2.1]octan-3-yl)piperidine-1-yl)-5-((6-((S)-3-(3-fluorobenzyl)isoxazolidine-2-yl)pyrimidine-4-yl)amino)-4-methoxyphenyl) acrylamide]",A (GI50 < 50 nM)
5,"C=CC(=O)Nc1cc(Nc2cc(N3OCC[C@@H]3c3cccc(Cl)c3C)ncn2)c(OC)cc1N(C)CCN(C)C [compound 583, N-(5-((6-((R)-3-(3-chloro-2-methylphenyl)isoxazolidine-2-yl)pyrimidine-4-yl)amino)-2-((2-(dimethylamino)ethyl)(methyl)amino)-4-methoxyphenyl) acrylamide]",A (GI50 < 50 nM)
6,"C=CC(=O)Nc1cc(Nc2cc(N3OCC[C@@H]3c3ccc(F)cc3F)ncn2)c(OC)cc1N1CCN(CC)CC1 [compound 351, N-(5-((6-((R)-3-(2,4-difluorophenyl)isoxazolidine-2-yl)pyrimidine-4-yl)amino)-2-(4-ethylpiperazine-1-yl)-4-methoxyphenyl) acrylamide]",A (GI50 < 50 nM)
7,"C=CC(=O)Nc1cc(Nc2cc(N3OCC[C@@H]3c3ccc(F)c(F)c3)ncn2)c(OC)cc1N1CCC(N2C[C@@H](C)O[C@@H](C)C2)CC1 [compound 543, N-(5-((6-((R)-3-(3,4-difluorophenyl)isoxazolidine-2-yl)pyrimidine-4-yl)amino)-2-(4-((2S,6R)-2,6-dimethylmorpholino)piperidine-1-yl)-4-methoxyphenyl) acrylamide]",A (GI50 < 50 nM)
8,"C=CC(=O)Nc1cc(Nc2cc(N3OCC[C@@H]3c3ccc(C)nc3)ncn2)c(OC)cc1N1CCC(N(C)C)CC1 [Example 50, N-(2-(4-dimethylaminopiperidine-1-yl)-4-methoxy-5-((6-((R)-3-(6-methylpyridine-3-yl)isoxazolidine-2-yl)pyrimidine-4-yl)amino)phenyl) acrylamide]",B (50 nM ≤ GI50 < 500 nM)
9,"C=CC(=O)Nc1cc(Nc2cc(N3OCC[C@@H]3c3cccc(Cl)c3F)ncn2)c(OC)cc1N1CCC(N2CCN(C3CC3)C[C@H]2C)CC1 [Example 149, N-(5-((6-((R)-3-(3-chloro-2-fluorophenyl)isoxazolidine-2-yl)pyrimidine-4-yl)amino)-2-(4-((R)-4-cyclopropyl-2-methylpiperazine-1-yl)piperidine-1-yl)-4-methoxyphenyl) acrylamide]",A (GI50 < 50 nM)
10,"C=CC(=O)Nc1cc(Nc2cc(N3OCC[C@@H]3c3cccc(Cl)c3Cl)ncn2)c(OC)cc1N1CCC(N2CCN(CC)CC2)CC1 [compound 569, N-(5-((6-((R)-3-(2,3-dichlorophenyl)isoxazolidine-2-yl)pyrimidine-4-yl)amino)-2-(4-(4-ethylpiperazine-1-yl)piperidine-1-yl)-4-methoxyphenyl) acrylamide]",A (GI50 < 50 nM)

# Next, values leading:
row,Ba/F3 (NPH) Activity,Compound
1,A (GI50 < 50 nM),"C=CC(=O)Nc1cc(Nc2cc(N3OCC[C@@H]3Cc3ccccc3)ncn2)c(OC)cc1N1C[C@H]2C[C@@H]1CO2 [compound 957, N-(5-((6-((S)-3-benzylisoxazolidine-2-yl)pyrimidine-4-yl)amino)-2-((1R,4R)-2-oxa-5-azabicyclo [2.2.1]heptane-5-yl)-4-methoxyphenyl) acrylamide]"
2,A (GI50 < 50 nM),"C=CC(=O)Nc1cc(Nc2cc(N3OCC[C@@H]3Cc3cccc(F)c3)ncn2)c(OC)cc1N1CCC(N2CCOCC2)CC1 [compound 996, N-(5-((6-((S)-3-(3-fluorobenzyl)isoxazolidine-2-yl)pyrimidine-4-yl)amino)-4-methoxy-2-(4-morpholinopiperidine-1-yl)phenyl)acrylamide]"
3,A (GI50 < 50 nM),"C=CC(=O)Nc1cc(Nc2cc(N3OCC[C@@H]3Cc3cc(F)cc(F)c3)ncn2)c(OC)cc1N1CCC(N2C[C@@H]3C[C@H]2CO3)CC1 [compound 1035, N-(2-(4-((1S,4S)-2-oxa-5-azabicyclo [2.2.1]heptane-5-yl)piperidine-1-yl)-5-((6-((S)-3-(3,5-difluorobenzyl)isoxazolidine-2-yl)pyrimidine-4-yl)amino)-4-methoxyphenyl) acrylamide]"
4,A (GI50 < 50 nM),"C=CC(=O)Nc1cc(Nc2cc(N3OCC[C@@H]3Cc3cccc(Cl)c3Cl)ncn2)c(OC)cc1N1CCC(N2C[C@@H]3C[C@H]2CO3)CC1 [compound 1012, N-(2-(4-((1S,4S)-2-oxa-5-azabicyclo [2.2.1]heptane-5-yl)piperidine-1-yl)-5-((6-((S)-3-(2,3-dichlorobenzyl)isoxazolidine-2-yl)pyrimidine-4-yl)amino)-4-methoxyphenyl) acrylamide]"
5,A (GI50 < 50 nM),"C=CC(=O)Nc1cc(Nc2cc(N3OCC[C@@H]3Cc3ccccc3)ncn2)c(OC)cc1N1CCN(CC)CC1 [compound 946, N-(5-((6-((S)-3-benzylisoxazolidine-2-yl)pyrimidine-4-yl)amino)-2-(4-ethylpiperazine-1-yl)-4-methoxyphenyl) acrylamide]"
6,A (GI50 < 50 nM),"C=CC(=O)Nc1cc(Nc2cc(N3OCC[C@@H]3c3ccc(F)c(Cl)c3)ncn2)c(OC)cc1N1CCC(N2C[C@H]3CC[C@@H](C2)O3)CC1 [compound 871, N-(2-(4-((1R,5S)-8-oxa-3-azabicyclo [3.2.1]octan-3-yl)piperidine-1-yl)-5-((6-((R)-3-(3-chloro-4-fluorophenyl)isoxazolidine-2-yl)pyrimidine-4-yl)amino)-4-methoxyphenyl) acrylamide]"
7,A (GI50 < 50 nM),"C=CC(=O)Nc1cc(Nc2cc(N3OCC[C@@H]3c3cccc(F)c3F)ncn2)c(OC)cc1N1CCN(C)[C@H](C)C1 [compound 884, N-(5-((6-((R)-3-(2,3-difluorophenyl)isoxazolidine-2-yl)pyrimidine-4-yl)amino)-2-((R)-3,4-dimethylpiperazine-1-yl)-4-methoxyphenyl) acrylamide]"
8,B (50 nM ≤ GI50 < 500 nM),"C=CC(=O)Nc1cc(Nc2cc(N3OCC[C@@H]3Cc3cccc(N(C)C)c3)ncn2)c(OC)cc1N1CCC(N2CCN(C3CC3)CC2)CC1 [compound 1044, N-(2-(4-(4-cyclopropylpiperazine-1-yl)piperidine-1-yl)-5-((6-((S)-3-(3-(dimethylamino)benzyl)isoxazolidine-2-yl)pyrimidine-4-yl)amino)-4-methoxyphenyl) acrylamide]"
9,B (50 nM ≤ GI50 < 500 nM),C=CC(=O)Nc1cc(Nc2cc(N3OCC[C@@H]3c3cccc(Cl)c3Cl)ncn2)c(OC)cc1N1CCC(N2CCN(C3CCN(C)CC3)CC2)CC1 [compound 611]
10,A (GI50 < 50 nM),"C=CC(=O)Nc1cc(Nc2cc(N3OCC[C@@H]3c3cc(F)ccc3F)ncn2)c(OC)cc1N1CCC(N2CCC(F)(F)CC2)CC1 [compound 817, N-(2-(4,4-difluoro-[1,4'-bipiperidine]-1'-yl)-5-((6-((R)-3-(2,5-difluorophenyl)isoxazolidine-2-yl)pyrimidine-4-yl)amino)-4-methoxyphenyl) acrylamide]"
11,B (50 nM ≤ GI50 < 500 nM),"C=CC(=O)Nc1cc(Nc2cc(N3OCC[C@@H]3c3ccc(F)c(Cl)c3F)ncn2)c(OC)cc1N1C[C@H](C)O[C@@H](C)C1 [compound 658, N-(5-((6-((R)-3-(3-chloro-2,4-difluorophenyl)isoxazolidine-2-yl)pyrimidine-4-yl)amino)-2-((2S,6S)-2,6-dimethylmorpholino)-4-methoxyphenyl) acrylamide]"
12,A (GI50 < 50 nM),"C=CC(=O)Nc1cc(Nc2cc(N3OCC[C@@H]3c3cccc(C)c3F)ncn2)c(OC)cc1N1CCOCC1 [compound 844, N-(5-((6-((R)-3-(2-fluoro-3-methylphenyl)isoxazolidine-2-yl)pyrimidine-4-yl)amino)-4-methoxy-2-morpholinophenyl) acrylamide]"
13,B (50 nM ≤ GI50 < 500 nM),"C=CC(=O)Nc1cc(Nc2cc(N3OCC[C@@H]3c3ccc(Cl)c(Cl)c3F)ncn2)c(OC)cc1N1CCC(N2CC[C@@H](N(C)C)C2)CC1 [compound 771, N-(5-((6-((R)-3-(3,4-dichloro-2-fluorophenyl)isoxazolidine-2-yl)pyrimidine-4-yl)amino)-2-(4-((R)-3-(dimethylamino)pyrolidine-1-yl)piperidine-1-yl)-4-methoxyphenyl) acrylamide]"

# Reference: patent US12157730B2, “Heteroaryl derivative, method for producing same, and pharmaceutical composition comprising same as effective component” (VORONOI INC., priority 2019, dated 2024)
